Measured values from patent publication US6417167B1, “Lyophilized compositions containing shingoglycolipid and process for preparing them” (Kirin Beer Kabushiki Kaisha, priority 1997, dated 2002).
In brackets after ≈: the same amount, converted by molar mass. Like-named read-outs stand apart in the source and are kept apart here.

Experiments:
Type in all cases: physicochemical
[1] = Selection of a solvent for the active component: solubility judged by naked eye; details: thermodynamic from solid, read-out: Judgment of solubility (by naked eye)
Experimental: First, 1 mg of the active component (KRN7000) was weighed and stirred in 100 ml of a variety of solvents (Table 3) in a heated bath to 80° C. for 20 minutes in order to form a solution having a concentration of 10 μg/ml. With respect to the solvents which were judged to have successfully dissolved 10 μg/ml of the active component, dissolution was further tried in the same manner as above in order to form a solution having a concentration of 100 μg/ml. With respect to the solvents which were judged to have successfully dissolved 100 μg/ml of the active component, dissolution was further tried in the same manner as above in order to form a solution having a concentration of 200 μg/ml. After cooling with running water, the solubility of the component was judged.
The solubility of the component was judged by the test described below. First, transparent colorless glass vials having a volume of 5 ml were charged with about 1.5 ml portion of each sample and sealed up. The vial was cleaned outside and placed beneath the white light source in a darkroom for observation with naked eye at the position of a luminous intensity of about 5,000 lux. When the sample was clear with no precipitates, it was judged that the active component was dissolved.

[2] = Additives for improving re-solubility during storage, mannitol as excipient; details: lyophilized, Polysorbate 20 0.5%, 25° C.
Experimental: First, Polysorbate 20 was dissolved in distilled water in a concentration of 0.5%, and mannitol and a variety of additives such concentrations as listed in Table 8. Next, 20 mg of the active component (KRN7000) was weighed and stirred in 100 ml of the solvents in a heated bath to 80° C. for 20 minutes in order to form a solution. After cooling with running water, the mixture was filtered through a 0.22 μm filter, and transparent colorless glass vials having a volume of 5 ml were charged with 1 ml portion of each of a variety of solutions thus obtained and subjected to lyophilization. Lyophilization was carried out under the condition of preliminary freezing at −40° C. for 2 hours and drying at −20° C. for 24 hours, 10° C. for 12 hours, and finally at 25° C. for 5 hours to give the lyophilized product. The degree of vacuum was set at 0.1 Torr or less during drying step.
After the lyophilization step, the lyophilized composition was stored at 25° C. After storage for 1 month, the lyophilized composition was reconstituted in 1 ml of distilled water for injection, left standing for 30 minutes, and solubility was judged when the foams generated on reconstitution disappeared. The samples judged in solution were further stored, and judged again of their solubility after 4 months.
The solubility was judged by cleaning the outside of the vial and placing it beneath the white light source in a darkroom for observation with naked eye at the position of a luminous intensity of about 5,000 lux. When the sample was clear with no precipitates, it was judged that the active component was dissolved.

[3] = Cooling condition after dissolution with heating 1: turbidity (absorbance 660 nm, kaolin standard); details: Polysorbate 20 0.5%, histidine 0.75%, sucrose 5.6%; cooling 73° C. → 30° C., 23 minutes; reconstituted in 1 ml distilled water
Experimental: First, Polysorbate 20 was dissolved in distilled water in a concentration of 0.5%, histidine in a concentration of 0.75%, and sucrose in a concentration of 5.6%. Next, 800 mg of the active component (KRN7000) was weighed and stirred in 4 liters of the solvent under heating at 73° C. for 30 minutes in order to form a solution. After dissolution, the mixture was divided into about 500 ml portions, cooled with stirring from 73° C. to 30° C. (6 minutes), from 73° C. to 30° C. (23 minutes), and from 73° C. to 30° C. (120 minutes). […]
The turbidity of the solutions prepared respective cooling conditions before or after the filtration step, and the lyophilized composition thus obtained which were reconstituted after leaving standing at room temperature (25° C. ) for 3 hours from the lyophilization step, were measured. In this connection, the lyophilized composition was reconstituted in 1 ml of distilled water for injection, left standing for 30 minutes, and turbidity was measured when the foams generated on reconstitution disappeared.
The turbidity was measured by the following method: various dilutions including 50-fold dilution (kaolin 2 μg/ml, turbidity 2.00), 100-fold dilution (kaolin 1 μg/ml, turbidity 1.00), and 200-fold dilution (kaolin 0.5 μg/ml, turbidity 0.50) were prepared by diluting the turbidity standard (kaolin, 0.1 mg/ml) with distilled water. […]

## CCCCCCCCCCCCCCCCCCCCCCCCCC(=O)N[C@@H](CO[C@H]1O[C@H](CO)[C@H](O)[C@H](O)[C@H]1O)[C@H](O)[C@H](O)CCCCCCCCCCCCCC [KRN7000, (2S,3S,4R)-1-(α-D-galactopyranosyloxy)-2-hexacosanoylamino-3,4-octadecanediol]
[1]; 0.5% Cremophor, 80 °C, aqueous with cosolvent or surfactant or cyclodextrin, solvent 0.5% Cremophor, KRN7000 10 μg/ml
  solubility at 20 min: < 10 µg/mL
[1]; 0.5% HCO 50, 80 °C, aqueous with cosolvent or surfactant or cyclodextrin, solvent 0.5% HCO 50, KRN7000 10 μg/ml
  solubility at 20 min: < 10 µg/mL
[1]; 0.5% HCO 60, 80 °C, aqueous with cosolvent or surfactant or cyclodextrin, solvent 0.5% HCO 60, KRN7000 10 μg/ml
  solubility at 20 min: < 10 µg/mL
[1]; 0.5% Polyoxamer 188, 80 °C, aqueous with cosolvent or surfactant or cyclodextrin, solvent 0.5% Polyoxamer 188, KRN7000 10 μg/ml
  solubility at 20 min: < 10 µg/mL
[1]; 0.5% Polysorbate 20, 80 °C, aqueous with cosolvent or surfactant or cyclodextrin, solvent 0.5% Polysorbate 20, KRN7000 10 μg/ml
  solubility at 20 min: > 10 µg/mL
[1]; 0.5% Polysorbate 20, 80 °C, aqueous with cosolvent or surfactant or cyclodextrin, solvent 0.5% Polysorbate 20, KRN7000 100 μg/ml
  solubility at 20 min: > 100 µg/mL
[1]; 0.5% Polysorbate 20, 80 °C, aqueous with cosolvent or surfactant or cyclodextrin, solvent 0.5% Polysorbate 20, KRN7000 200 μg/ml
  solubility at 20 min: > 200 µg/mL
[1]; 0.5% Polysorbate 80, 80 °C, aqueous with cosolvent or surfactant or cyclodextrin, solvent 0.5% Polysorbate 80, KRN7000 10 μg/ml
  solubility at 20 min: > 10 µg/mL
[1]; 0.5% Polysorbate 80, 80 °C, aqueous with cosolvent or surfactant or cyclodextrin, solvent 0.5% Polysorbate 80, KRN7000 100 μg/ml
  solubility at 20 min: 10 to 100 µg/mL (≈ 11.7 to 117 µM)
[1]; 1N HCl, 80 °C, simulated gastric fluid, solvent 1N HCl, KRN7000 10 μg/ml
  solubility at 20 min: < 10 µg/mL
[1]; 1N NaOH, 80 °C, aqueous buffer, solvent 1N NaOH, KRN7000 10 μg/ml
  solubility at 20 min: < 10 µg/mL
[1]; Distilled water, 80 °C, water, solvent Distilled water, KRN7000 10 μg/ml
  solubility at 20 min: < 10 µg/mL
[1]; Ethanol, 80 °C, organic solvent or mixture, solvent Ethanol, KRN7000 10 μg/ml
  solubility at 20 min: > 10 µg/mL
[1]; Ethanol, 80 °C, organic solvent or mixture, solvent Ethanol, KRN7000 100 μg/ml
  solubility at 20 min: > 100 µg/mL
[1]; Ethanol, 80 °C, organic solvent or mixture, solvent Ethanol, KRN7000 200 μg/ml
  solubility at 20 min: > 200 µg/mL
[1]; Glycerol, 80 °C, organic solvent or mixture, solvent Glycerol, KRN7000 10 μg/ml
  solubility at 20 min: > 10 µg/mL
[1]; Glycerol, 80 °C, organic solvent or mixture, solvent Glycerol, KRN7000 100 μg/ml
  solubility at 20 min: 10 to 100 µg/mL (≈ 11.7 to 117 µM)
[1]; Macrogol 400, 80 °C, organic solvent or mixture, solvent Macrogol 400, KRN7000 10 μg/ml
  solubility at 20 min: > 10 µg/mL
[1]; Macrogol 400, 80 °C, organic solvent or mixture, solvent Macrogol 400, KRN7000 100 μg/ml
  solubility at 20 min: 10 to 100 µg/mL (≈ 11.7 to 117 µM)
[1]; Propylene glycol, 80 °C, organic solvent or mixture, solvent Propylene glycol, KRN7000 10 μg/ml
  solubility at 20 min: > 10 µg/mL
[1]; Propylene glycol, 80 °C, organic solvent or mixture, solvent Propylene glycol, KRN7000 100 μg/ml
  solubility at 20 min: 10 to 100 µg/mL (≈ 11.7 to 117 µM)
[2]; Mannitol 10%, Sodium deoxycholate, 1%, 1 month
  Re-solubility after storage (by naked eye): − (dissolved)
[2]; Mannitol 10%, Sodium deoxycholate, 1%, 4 months
  Re-solubility after storage (by naked eye): − (dissolved)
[2]; Mannitol 10%, no additive, 1 month
  Re-solubility after storage (by naked eye): − (dissolved)
[2]; Mannitol 10%, no additive, 4 months
  Re-solubility after storage (by naked eye): + (not dissolved (or deposited))
[2]; Mannitol 15%, Glycerol, 0.1%, 1 month
  Re-solubility after storage (by naked eye): + (not dissolved (or deposited))
[2]; Mannitol 15%, Glycerol, 0.1%, 4 months
  Re-solubility after storage (by naked eye): + (not dissolved (or deposited))
[2]; Mannitol 15%, Glycerol, 1%, 1 month
  Re-solubility after storage (by naked eye): + (not dissolved (or deposited))
[2]; Mannitol 15%, Glycerol, 1%, 4 months
  Re-solubility after storage (by naked eye): + (not dissolved (or deposited))
[2]; Mannitol 15%, PEG400, 1%, 1 month
  Re-solubility after storage (by naked eye): + (not dissolved (or deposited))
[2]; Mannitol 15%, PEG400, 1%, 4 months
  Re-solubility after storage (by naked eye): + (not dissolved (or deposited))
[2]; Mannitol 15%, Sodium deoxycholate, 1%, 1 month
  Re-solubility after storage (by naked eye): + (not dissolved (or deposited))
[2]; Mannitol 15%, Sodium deoxycholate, 1%, 4 months
  Re-solubility after storage (by naked eye): + (not dissolved (or deposited))
[2]; Mannitol 15%, no additive, 1 month
  Re-solubility after storage (by naked eye): + (not dissolved (or deposited))
[2]; Mannitol 15%, no additive, 4 months
  Re-solubility after storage (by naked eye): + (not dissolved (or deposited))
[3]
  Turbidity Lyophilized composition: 0.36
